Consider 2 compounds from US8815935B2, “Inhibitors of protein prenyltransferases” (The Regents of the University of California, priority 2008, dated 2014).

The structures appear in SMILES notation.

The target of test [1] is GGTase I (K-Ras4B as substrate) (Homo sapiens, UniProt P49354+P53609). Kind of test: GGTase I filter-binding assay, K-Ras4B as substrate (library screens). The format is biochemical. To be noted: compound 50 μM; DMSO = 100%; smaller = better inhibition; 50 µM. The method, then: (§1) The pilot library was screened for inhibitors of protein geranylgeranyltransferase type I. Protein prenyltransferase assays were carried out by using filter binding. Two different substrates, RhoA and K-Ras4B, were used for the assay. RhoA ends with the CaaL motif and is an exclusive substrate for GGTase I, while K-Ras4B ends with the CaaX motif and is modified by both GGTase I and FTase.
(§2) In the assay, a fixed concentration of 100 μM was used and the results are plotted for the inhibition of RhoA (vertical axis) as well as for K-Ras4B (horizontal axis). […] They are 2,6-diaryl-N-tosyl-1,2,5,6-tetrahydropyridine-3-carboxylic acids, except P2-D5 that is missing an aryl substituent at C2.
The % activity of GGTase I was determined as follows: a working solution that contained each compound in DMSO at the concentration of 1 mM was prepared. The working solution was added to GGTase I reaction mixture so that the final concentration of the compound is 50 μM. GGTase I activity was assayed by incubating [^3H]GGPP with K-Ras4B or RhoA protein in the presence of GGTase I and examining radioactivity incorporated into the substrate protein by spotting onto a filter paper. After washing with TCA, ethanol and acetone, the radioactivity retained on the filter was determined by the use of a scintillation counter. GGTase I activity in the presence of DMSO was taken as a 100% value and the activity in the presence of the compound was shown as percent activity compared with the 100% value. […] For 6-aryl-4-mercapto-N-sulfonyl-piperidine-3-carboxylic acid 11 the 4-mercapto substituent appeared critical to endowing GGTase inhibitory activity. […] 4-Chlorobenzylthio substituent was the next best; 12 compounds out of 21 containing the 4-chlorobenzylthio moiety were active. 4-Benzylthio substituent was also good; 7 piperidines out of 21 bearing 4-benzylthio group were active. […] 19 imines (C15>C12=C41>C40>C01=C11>C05=C10=C30=C35=C37=C38>C02, C03, C04, C06, C39=C43) out of 21 appeared in the GGTIs. […] This corresponds to 47 6-aryl-4-mercapto-N-sulfonyl-piperidine-3-carboxylic acids out of 357 compounds.
A collection of 138 heterocycles was screened for their ability to inhibit the activity of human GGTase-I to geranylgeranylate K-Ras4B or RhoA. Purified GGTase-I was incubated with its substrate protein K-Ras4B or RhoA, [^3H]GGPP, and the 138 compounds. After 30 min, the degree of incorporation of tritiated geranylgeranyl groups was measured using a scintillation counter.

The target of test [2] is GGTase I (RhoA as substrate) (Homo sapiens, UniProt P49354+P53609). The experiment in a line: GGTase I filter-binding assay, RhoA as substrate (library screens). The format is biochemical. To be noted: compound 50 μM, DMSO = 100%, smaller = better inhibition. How it is done: as §1, §2
The % activity of GGTase I was determined as follows: a working solution that contained each compound in DMSO at the concentration of 1 mM was prepared. The working solution was added to GGTase I reaction mixture so that the final concentration of the compound is 50 μM. GGTase I activity was assayed by incubating [^3H]GGPP with K-Ras4B or RhoA protein in the presence of GGTase I and examining radioactivity incorporated into the substrate protein by spotting onto a filter paper. After washing with TCA, ethanol and acetone, the radioactivity retained on the filter was determined by the use of a scintillation counter. GGTase I activity in the presence of DMSO was taken as a 100% value and the activity in the presence of the compound was shown as percent activity compared with the 100% value. […] For 6-aryl-4-mercapto-N-sulfonyl-piperidine-3-carboxylic acid 11 the 4-mercapto substituent appeared critical to endowing GGTase inhibitory activity. […] 4-Chlorobenzylthio substituent was the next best; 12 compounds out of 21 containing the 4-chlorobenzylthio moiety were active. […]
A collection of 138 heterocycles was screened for their ability to inhibit the activity of human GGTase-I to geranylgeranylate K-Ras4B or RhoA. […] After 30 min, the degree of incorporation of tritiated geranylgeranyl groups was measured using a scintillation counter.

Take `Cc1ccccc1S(=O)(=O)N1C(c2ccc(Cl)cc2)CC=C(C(=O)O)[C@@H]1c1ccccc1` (stereo partly shown) [drawing 39]: the “% activity of GGTase I for K-Ras4B in the presence of the compound” value in test [1] is 15.6%. Also, in test [2], the “% activity of GGTase I for RhoA in the presence of the compound” value turned out to be 12.4%.

As to `Cc1ccccc1S(=O)(=O)N1C(c2ccc(Cl)cc2)CC=C(C(=O)O)[C@@H]1c1ccccc1` (stereo partly shown) [drawing 42], the “% activity of GGTase I for K-Ras4B in the presence of the compound” value in test [1] was determined as 5.4%. Further, the “% activity of GGTase I for RhoA in the presence of the compound” value in test [2] is listed as 3.0%.
